# Experimental data reported in patent US9493506B2 (Enanta Pharmaceuticals, Inc., priority 2010, dated 2016).
# pEC50: −log10 of the molar value.
# Experiments:
# Type in all cases: cell-based, hepatitis C virus (genotype 1a-H77)
# [1] = test system: HCV replicon with a D168E mutation in a 1a-H77 background; test: transient replicon assay, D168E mutation in 1a-H77 background; conditions: Hepatitis C virus, read-out: EC50 in a transient replicon assay with a D168E mutation in a 1a-H77 background
# Method: (§1) Replicon cell lines can be maintained in Dulbecco's modified Eagles medium (DMEM) containing 100 IU/ml penicillin, […] streptomycin (Invitrogen), […] G418 (Invitrogen) and 10% (v/v) fetal bovine serum (FBS). Replicon-containing cells can be seeded into 96 well plates at a density of 5000 cells per well in 100 μl DMEM containing 5% FBS. The next day, the compound can be initially diluted in dimethyl sulfoxide (DMSO) to generate a 200× stock of the inhibitor in a series of 8 half-log dilutions. The dilution series can then be diluted 100-fold in the medium containing 5% FBS. One hundred microliters of medium with the inhibitor can be added to each well of the overnight cell culture plate already containing 100 μl of DMEM with 5% FBS. In assays where the protein binding effect on inhibitor potency is assessed, the medium from the overnight cell culture plates can be replaced with 200 μl DMEM containing 40% human plasma (Innovative Research) plus 5% FBS as well as compound. The cells can be grown for 4 days in tissue culture incubators. The inhibitory effects of compounds against the replicons can be determined by measuring either the level of luciferase or HCV RNA. The luciferase assay can be conducted using a Luciferase Assay System kit (Promega) following the manufacturer's instructions. Briefly, the cell culture medium is removed and wells are washed with 200 μl of phosphate-buffered saline. To each well Passive Lysis buffer (Promega, Wis.) is added and the plates are incubated for 30 min with rocking to lyse the cells. Luciferin solution (50 μl, Promega) is added, and luciferase activity is measured with a Victor II luminometer (Perkin-Elmer). To determine HCV RNA levels, RNA extractions can be performed using the CellsDirect kit (Invitrogen), and the HCV RNA copy number can be measured using the SuperScript III Platinum One-Step qRT-PCR system (Invitrogen) and primers specific to the HCV 5′ nontranslated region. Cytotoxicity can be determined by the 3-[4,5-dimethylhiazol-2-yl]-2,5-diphenyltetrazolium bromide (MTT) colorimetric assay as follows. Replicon cells is plated in 96-well plates (4000 cells per well), the next day compound dilutions are added as in the activity assay, and the cells are grown in the presence of the inhibitors for 4 days. The MTT solution is diluted in DMEM containing 5% FBS and 60 μl of the solution is added to the cells. After 4 hrs, the cells are solubilized by the addition of 30 […]μl SDS (20% in 0.02 N HCl). The plates are incubated overnight and the optical density can be measured at 570 nm. To determine compounds' EC50 and TD50, luciferase, RNA inhibition and MTT data can be analyzed using the GraphPad Prism 4 software (equation: sigmoidal dose-response—variable slope).
# (§2) The 1a-H77 replicon for transient assays further differs from the replicon in the stable cell line in that it contains NS2 through NS5B in the second cistron. The 1b-N strain replicon contains NS3 through NS5B in the second cistron, with adaptive mutations E1202G in NS3 and S2204I in NS5A. Mutagenesis can be performed using the Stratagene QuikChange XL II site-directed mutagenesis kit. Mutants' sequences can be confirmed, plasmids can be linearized with Xba I restriction enzyme and used as template for in vitro transcription reactions to make mutant replicon RNA for transient transfections. In vitro transcription can be performed with the T7 Megascript kit (Ambion).
# (§3) Transient replicon transfections can be performed essentially as described by Mo et al. (Antimicrob Agents Chemother (2005) 49(10):4305-4314) with slight modifications. Fifteen micrograms of template RNA can be used to electroporate 3×10^6 cells in a 200 μl volume in a 0.2 cm cuvette. The cells used for transient transfections can be Huh7 cells obtained by curing replicon-containing cells with IFN (Mo et al., supra). Electroporation can be done with a Gene Pulser II (Bio-Rad, CA) at 480V and 25 μF, using two manual pulses. […]
# [2] = test system: HCV replicon with a R155K mutation in a 1a-H77 background; test: transient replicon assay, R155K mutation in 1a-H77 background; conditions: Hepatitis C virus, read-out: EC50 in a transient replicon assay with a R155K mutation in a 1a-H77 background
# Method: as §1, §2, §3
# [3] = test system: HCV replicon with a D168V mutation in a 1a-H77 background; test: transient replicon assay, D168V mutation in 1a-H77 background; conditions: Hepatitis C virus, read-out: EC50 in a transient replicon assay with a D168V mutation in a 1a-H77 background
# Method: as §1, §2, §3
Structure (SMILES),pEC50 [1],pEC50 [2],pEC50 [3]
"Cc1nc2ccc(F)cc2nc1O[C@@H]1C[C@H]2C(=O)N[C@]3(C(=O)NS(=O)(=O)C4CC4)C[C@H]3/C=C\CCCCC[C@H](NC(=O)OC(C)(C)C)C(=O)N2C1 [Example 20, tert-butyl (2R,6S,13aS,14aR,16aS,Z)-14a-(cyclopropylsulfonylcarbamoyl)-2-(7-fluoro-3-methylquinoxalin-2-yloxy)-5,16-dioxo-1,2,3,5,6,7,8,9,10,11,13a,14,14a,15,16,16a-hexadecahydrocyclopropa[e]pyrrolo[1,2-a][1,4]diazacyclopentadecin-6-ylcarbamate]",7.70 to 8.52,> 9.00,7.30 to 7.60
"Cc1nc2ccc(F)cc2nc1O[C@@H]1C[C@H]2C(=O)N[C@]3(C(=O)NS(=O)(=O)C4CC4)C[C@H]3/C=C\CCCCC[C@H](NC(=O)c3noc(C)c3C)C(=O)N2C1 [Example 21, N-((2R,6S,13aS,14aR,16aS,Z)-14a-(cyclopropylsulfonylcarbamoyl)-2-(7-fluoro-3-methylquinoxalin-2-yloxy)-5,16-dioxo-1,2,3,5,6,7,8,9,10,11,13a,14,14a,15,16,16a-hexadecahydrocyclopropa[e]pyrrolo[1,2-a][1,4]diazacyclopentadecin-6-yl)-4,5-dimethylisoxazole-3-carboxamide]",> 8.52,> 9.00,> 7.60
"Cc1nc2ccc(F)cc2nc1O[C@@H]1C[C@H]2C(=O)N[C@]3(C(=O)NS(=O)(=O)C4(C)CC4)C[C@H]3/C=C\CCCCC[C@H](NC(=O)c3noc(C)c3C)C(=O)N2C1 [Example 24, N-((2R,6S,13aS,14aR,16aS,Z)-2-(7-fluoro-3-methylquinoxalin-2-yloxy)-14a-(1-methylcyclopropylsulfonylcarbamoyl)-5,16-dioxo-1,2,3,5,6,7,8,9,10,11,13a,14,14a,15,16,16a-hexadecahydrocyclopropa[e]pyrrolo[1,2-a][1,4]diazacyclopentadecin-6-yl)-4,5-dimethylisoxazole-3-carboxamide]",> 8.52,> 9.00,> 7.60
"Cc1nc2cccc(F)c2nc1O[C@@H]1C[C@H]2C(=O)N[C@]3(C(=O)NS(=O)(=O)C4CC4)C[C@H]3/C=C\CCCCC[C@H](NC(=O)OC(C)(C)C)C(=O)N2C1 [Example 54, tert-butyl (2R,6S,13aS,14aR,16aS,Z)-14a-(cyclopropylsulfonylcarbamoyl)-2-(8-fluoro-3-methylquinoxalin-2-yloxy)-5,16-dioxo-1,2,3,5,6,7,8,9,10,11,13a,14,14a,15,16,16a-hexadecahydrocyclopropa[e]pyrrolo[1,2-a][1,4]diazacyclopentadecin-6-ylcarbamate]",7.30 to 7.70,8.00 to 9.00,6.60 to 7.30
"Cc1nc2cccc(F)c2nc1O[C@@H]1C[C@H]2C(=O)N[C@]3(C(=O)NS(=O)(=O)C4CC4)C[C@H]3/C=C\CCCCC[C@H](NC(=O)c3ccon3)C(=O)N2C1 [Example 55, N-((2R,6S,13aS,14aR,16aS,Z)-14a-(cyclopropylsulfonylcarbamoyl)-2-(8-fluoro-3-methylquinoxalin-2-yloxy)-5,16-dioxo-1,2,3,5,6,7,8,9,10,11,13a,14,14a,15,16,16a-hexadecahydrocyclopropa[e]pyrrolo[1,2-a][1,4]diazacyclopentadecin-6-yl)isoxazole-3-carboxamide]",7.30 to 7.70,8.00 to 9.00,6.60 to 7.30
"Cc1nc2cccc(F)c2nc1O[C@@H]1C[C@H]2C(=O)N[C@]3(C(=O)NS(=O)(=O)C4CC4)C[C@H]3/C=C\CCCCC[C@H](NC(=O)c3noc(C)c3C)C(=O)N2C1 [Example 57, N-((2R,6S,13aS,14aR,16aS,Z)-14a-(cyclopropylsulfonylcarbamoyl)-2-(8-fluoro-3-methylquinoxalin-2-yloxy)-5,16-dioxo-1,2,3,5,6,7,8,9,10,11,13a,14,14a,15,16,16a-hexadecahydrocyclopropa[e]pyrrolo[1,2-a][1,4]diazacyclopentadecin-6-yl)-4,5-dimethylisoxazole-3-carboxamide]",7.70 to 8.52,> 9.00,> 7.60
"Cc1cc(C(=O)N[C@H]2CCCCC/C=C\[C@@H]3C[C@@]3(C(=O)NS(=O)(=O)C3(C)CC3)NC(=O)[C@@H]3C[C@@H](Oc4nc5c(F)cccc5nc4C)CN3C2=O)no1 [Example 58, N-((2R,6S,13aS,14aR,16aS,Z)-2-(8-fluoro-3-methylquinoxalin-2-yloxy)-14a-(1-methylcyclopropylsulfonylcarbamoyl)-5,16-dioxo-1,2,3,5,6,7,8,9,10,11,13a,14,14a,15,16,16a-hexadecahydrocyclopropa[e]pyrrolo[1,2-a][1,4]diazacyclopentadecin-6-yl)-5-methylisoxazole-3-carboxamide]",7.70 to 8.52,> 9.00,> 7.60
"Cc1cc(C(=O)N[C@H]2CCCCC/C=C\[C@@H]3C[C@@]3(C(=O)NS(=O)(=O)C3CC3)NC(=O)[C@@H]3C[C@@H](Oc4nc5cc(F)cc(Br)c5nc4C)CN3C2=O)no1 [Example 98, N-((2R,6S,13aS,14aR,16aS,Z)-2-(5-bromo-7-fluoro-3-methylquinoxalin-2-yloxy)-14a-(cyclopropylsulfonylcarbamoyl)-5,16-dioxo-1,2,3,5,6,7,8,9,10,11,13a,14,14a,15,16,16a-hexadecahydrocyclopropa[e]pyrrolo[1,2-a][1,4]diazacyclopentadecin-6-yl)-5-methylisoxazole-3-carboxamide]",7.70 to 8.52,8.00 to 9.00,> 7.60
"Cc1nc2c(Br)cc(F)cc2nc1O[C@@H]1C[C@H]2C(=O)N[C@]3(C(=O)NS(=O)(=O)C4(C)CC4)C[C@H]3/C=C\CCCCC[C@H](NC(=O)c3ccon3)C(=O)N2C1 [Example 100, N-((2R,6S,13aS,14aR,16aS,Z)-2-(5-bromo-7-fluoro-3-methylquinoxalin-2-yloxy)-14a-(1-methylcyclopropylsulfonylcarbamoyl)-5,16-dioxo-1,2,3,5,6,7,8,9,10,11,13a,14,14a,15,16,16a-hexadecahydrocyclopropa[e]pyrrolo[1,2-a][1,4]diazacyclopentadecin-6-yl)isoxazole-3-carboxamide]",7.70 to 8.52,> 9.00,> 7.60
"Cc1nc2c(Br)cc(F)cc2nc1O[C@@H]1C[C@H]2C(=O)N[C@]3(C(=O)NS(=O)(=O)C4(C)CC4)C[C@H]3/C=C\CCCCC[C@H](NC(=O)c3noc(C)c3C)C(=O)N2C1 [Example 102, N-((2R,6S,13aS,14aR,16aS,Z)-2-(5-bromo-7-fluoro-3-methylquinoxalin-2-yloxy)-14a-(1-methylcyclopropylsulfonylcarbamoyl)-5,16-dioxo-1,2,3,5,6,7,8,9,10,11,13a,14,14a,15,16,16a-hexadecahydrocyclopropa[e]pyrrolo[1,2-a][1,4]diazacyclopentadecin-6-yl)-4,5-dimethylisoxazole-3-carboxamide]",7.70 to 8.52,> 9.00,> 7.60
